Where two headings read alike, the source gives them in different places.

The assay relates to NL-RLuc virus. Description: Inhibition of HIV replication (NL-RLuc luciferase reporter virus in MT-2 cells). In kind it is cell-based. Conditions: Human immunodeficiency virus 1, MT2, 120 h. From the text: Inhibition of HIV Replication:
A recombinant NL-RLuc proviral clone was constructed in which a section of the nef gene from NL4-3 was replaced with the Renilla Luciferase gene. This virus is fully infectious and can undergo multiple cycles of replication in cell culture. In addition, the luciferous reporter provides a simple and easy method for quantitating the extent of virus growth and consequently, the antiviral activity of test compounds. The plasmid pNLRLuc contains the proviral NL-Rluc DNA cloned into pUC 18 at the PvuII site. The NL-RLuc virus was prepared by transfection of 293T cells with the plasmid pNLRLuc. Transfections were performed using the LipofectAMINE PLUS kit from Invitrogen (Carlsbad, Calif.) according to the manufacturer and the virus generated was titered in MT-2 cells. For susceptibility analyses, the titrated virus was used to infect MT-2 cells in the presence of compound, and after 5 days of incubation, cells were processed and quantitated for virus growth by the amount of expressed luciferase. Assay media was RPMI 1640 supplemented with 10% heat inactivated fetal bovine serum (FBS), 100 units/ml penicillin G/100 units/ml streptomycin, 10 mM HEPES buffer pH 7.55 and 2 mM L-glutamine. The results from at least 2 experiments were used to calculate the EC50 values. Luciferase was quantitated using the Dual Luciferase kit from Promega (Madison, Wis.). Susceptibility of viruses to compounds was determined by incubation in the presence of serial dilutions of the compound. The 50% effective concentration (EC50) was calculated by using the exponential form of the median effect equation where (Fa)=1/[1+(ED50/drug conc.)^m](Johnson V A, Byington R T. Infectivity Assay. In Techniques in HIV Research. ed. Aldovini A, Walker B D. 71-76. New York: Stockton Press.1990). Activity equal to A refers to a compound having an EC50≤100 nM, while B and C denote compounds having an EC50 between 100 nM and 1 uM (B) or >1 uM (C).

Take `Cc1nc(C)c([C@H](OC(C)(C)C)C(=O)O)c(N2CC3CCC2C3)c1-c1ccc(C(=O)NCc2ccccc2)cc1` (stereo partly drawn) [Example 1, (S)-2-(5-(4-(Benzylcarbamoyl)phenyl)-4-(2-azabicyclo[2.2.1]heptan-2-yl)-2,6-dimethylpyridin-3-yl)-2-(tert-butoxy)acetic acid]: the EC50 was 0.1 to 1 µM (read-out: Activity) and 0.446 µM (read-out: EC50 μM).
Turning to `Cc1nc(C)c([C@H](OC(C)(C)C)C(=O)O)c(N2CCc3ccccc3C2)c1-c1ccc(OCCc2ccc(F)cc2)cc1` [Example 2, (S)-2-(tert-Butoxy)-2-(4-(3,4-dihydroisoquinolin-2(1H)-yl)-5-(4-(4-fluorophenethoxy)phenyl)-2,6-dimethylpyridin-3-yl)acetic acid], the EC50 (read-out: EC50 μM) was 0.036 µM.
Take `Cc1nc(C)c([C@H](OC(C)(C)C)C(=O)O)c(N2CC3CCCC3C2)c1-c1ccc(OCCc2ccc(F)cc2)cc1` (some centres unmarked) [Example 3]: the EC50 (read-out: Activity) is below 0.1 µM.
The same measure, in the same setting: under `Cc1nc(C)c([C@H](OC(C)(C)C)C(=O)O)c(N2CC3CCCC3C2)c1-c1ccc(C(=O)NCc2ccccc2)cc1` (stereo partly drawn) [Example 4, (2S)-2-(5-(4-(Benzylcarbamoyl)phenyl)-4-(hexahydrocyclopenta[c]pyrrol-2(1H)-yl)-2,6-dimethylpyridin-3-yl)-2-(tert-butoxy)acetic acid] stands below 0.1 µM; under `Cc1nc(C)c([C@H](OC(C)(C)C)C(=O)O)c(N2CC3CCC(C)(C2)C3(C)C)c1-c1ccc(C(=O)NCc2ccccc2)cc1` (stereo partly drawn) [Example 5, (S)-2-(5-(4-(Benzylcarbamoyl)phenyl)-2,6-dimethyl-4-(1,8,8-trimethyl-3-azabicyclo[3.2.1]octan-3-yl)pyridin-3-yl)-2-(tert-butoxy)acetic acid], below 0.1 µM; under `Cc1nc(C)c([C@H](OC(C)(C)C)C(=O)O)c(N2CC3CC3C2)c1-c1ccc(OCCc2ccc(F)cc2)cc1` (stereo partly drawn) [Example 6, (2S)-2-(4-(3-Azabicyclo[3.1.0]hexan-3-yl)-5-(4-(4-fluorophenethoxy)phenyl)-2,6-dimethylpyridin-3-yl)-2-(tert-butoxy)acetic acid], 0.1 to 1 µM.
Consider `Cc1nc(C)c([C@H](OC(C)(C)C)C(=O)O)c(N2CC3CC3C2)c1-c1ccc(C(=O)NCc2ccccc2)cc1` (stereo partly drawn) [Example 7, (2S)-2-(5-(4-(Benzylcarbamoyl)phenyl)-4-(3-azabicyclo[3.1.0]hexan-3-yl)-2,6-dimethylpyridin-3-yl)-2-(tert-butoxy)acetic acid], for which the EC50 is, setting by setting: (read-out: Activity) 0.1 to 1 µM; (read-out: EC50 μM) 0.651 µM.
Consider `Cc1nc(C)c([C@H](OC(C)(C)C)C(=O)O)c(N2CC3C(C2)C3(C)C)c1-c1ccc(OCCc2ccc(F)cc2)cc1` (stereo partly drawn) [Example 8, (2S)-2-(tert-Butoxy)-2-(4-(6,6-dimethyl-3-azabicyclo[3.1.0]hexan-3-yl)-5-(4-(4-fluorophenethoxy)phenyl)-2,6-dimethyl-pyridin-3-yl)acetic acid], for which the EC50 (read-out: Activity) is below 0.1 µM.
For the compound `Cc1nc(C)c([C@H](OC(C)(C)C)C(=O)O)c(N2CC3C(C2)C3(C)C)c1-c1ccc(C(=O)NCc2ccccc2)cc1` (stereo partly drawn) [Example 9, (2S)-2-(5-(4-(Benzylcarbamoyl)phenyl)-4-(6,6-dimethyl-3-azabicyclo[3.1.0]hexan-3-yl)-2,6-dimethylpyridin-3-yl)-2-(tert-butoxy)acetic acid], the EC50 was below 0.1 µM (read-out: Activity) and 0.083 µM (read-out: EC50 μM).
With `Cc1nc(C)c([C@H](OC(C)(C)C)C(=O)O)c(N2CCc3ccccc3C2)c1-c1ccc(OCCc2ccc(F)cc2)cc1` [Example 10, (S)-2-(tert-Butoxy)-2-(4-(3,4-dihydroisoquinolin-2(1H)-yl)-5-(4-(4-fluorophenethoxy)phenyl)-2,6-dimethylpyridin-3-yl)acetic acid], the EC50 (read-out: Activity) is below 0.1 µM.
Consider `Cc1nc(C)c([C@H](OC(C)(C)C)C(=O)O)c(N2CC[C@H]3CCCC[C@H]3C2)c1-c1ccc(C(=O)NCc2ccccc2)cc1` [Example 11, (S)-2-(5-(4-(Benzylcarbamoyl)phenyl)-2,6-dimethyl-4-((4aR,8aR)-octahydroisoquinolin-2(1H)-yl)pyridin-3-yl)-2-(tert-butoxy)acetic acid], for which the EC50 (read-out: Activity) is below 0.1 µM.
Consider `Cc1nc(C)c([C@H](OC(C)(C)C)C(=O)O)c(N2CC[C@H]3CCCC[C@@H]3C2)c1-c1ccc(OCCc2ccc(F)cc2)cc1` [Example 12, (S)-2-(tert-Butoxy)-2-(5-(4-(4-fluorophenethoxy)phenyl)-2,6-dimethyl-4-((4aR,8aS)-octahydroisoquinolin-2(H)-yl)pyridin-3-yl)acetic acid], for which the EC50 (read-out: Activity) is below 0.1 µM.
Still for that read-out and setting: under `Cc1nc(C)c([C@H](OC(C)(C)C)C(=O)O)c(N2CC[C@H]3CCCC[C@@H]3C2)c1-c1ccc(C(=O)NCc2ccccc2)cc1` [Example 13, (S)-2-(5-(4-(Benzylcarbamoyl)phenyl)-2,6-dimethyl-4-((4aR,8aS)-octahydroisoquinolin-2(1H)-yl)pyridin-3-yl)-2-(tert-butoxy)acetic acid] stands below 0.1 µM; under `Cc1nc(C)c([C@H](OC(C)(C)C)C(=O)O)c(N2CCC3(CCCC3)C2)c1-c1ccc(OCCc2ccc(F)cc2)cc1` [Example 14, (S)-2-(tert-Butoxy)-2-(5-(4-(4-fluorophenethoxy)phenyl)-2,6-dimethyl-4-(2-azaspiro[4.4]nonan-2-yl)pyridin-3-yl)acetic acid], below 0.1 µM.
Still for that read-out and setting: under `Cc1nc(C)c([C@H](OC(C)(C)C)C(=O)O)c(N2CCC3(CCCC3)C2)c1-c1ccc(C(=O)NCc2ccccc2)cc1` [Example 15, (S)-2-(5-(4-(Benzylcarbamoyl)phenyl)-2,6-dimethyl-4-(2-azaspiro[4.4]nonan-2-yl)pyridin-3-yl)-2-(tert-butoxy)acetic acid] stands below 0.1 µM.
With `Cc1nc(C)c([C@H](OC(C)(C)C)C(=O)O)c(N2CCC3(CC2)CC3)c1-c1ccc(OCCc2ccc(F)cc2)cc1` [Example 16, (S)-2-(tert-Butoxy)-2-(5-(4-(4-fluorophenethoxy)phenyl)-2,6-dimethyl-4-(6-azaspiro[2.5]octan-6-yl)pyridin-3-yl)acetic acid], the EC50 (read-out: Activity) is below 0.1 µM and the EC50 (read-out: EC50 μM) came out at 0.003 µM.
Regarding `Cc1nc(C)c([C@H](OC(C)(C)C)C(=O)O)c(N2CCC3(CC2)CC3)c1-c1ccc(C(=O)NCc2ccccc2)cc1` [Example 17, (S)-2-(5-(4-(Benzylcarbamoyl)-phenyl)-2,6-dimethyl-4-(6-azaspiro[2.5]octan-6-yl)pyridin-3-yl)-2-(tert-butoxy)acetic acid], the EC50 (read-out: Activity) is below 0.1 µM.
Regarding `Cc1nc(C)c([C@H](OC(C)(C)C)C(=O)O)c(N2CCCC3(CCCC3)C2)c1-c1ccc(OCCc2ccc(F)cc2)cc1` [Example 18, (S)-2-(tert-Butoxy)-2-(5-(4-(4-fluorophenethoxy)phenyl)-2,6-dimethyl-4-(7-azaspiro[4.5]decan-7-yl)pyridin-3-yl)acetic acid], the EC50 by setting is: (read-out: Activity) 0.1 to 1 µM; (read-out: EC50 μM) 0.475 µM.
As to `Cc1nc(C)c([C@H](OC(C)(C)C)C(=O)O)c(N2CCCC3(CCCC3)C2)c1-c1ccc(C(=O)NCc2ccccc2)cc1` [Example 19, (S)-2-(5-(4-(Benzylcarbamoyl)phenyl)-2,6-dimethyl-4-(7-azaspiro[4.5]decan-7-yl)pyridin-3-yl)-2-(tert-butoxy)acetic acid], the EC50 (read-out: Activity) was 0.1 to 1 µM.
The same measure, in the same setting: under `Cc1nc(C)c([C@H](OC(C)(C)C)C(=O)O)c(N2CCC3(CCCC3)CC2)c1-c1ccc(OCCc2ccc(F)cc2)cc1` [Example 20, (S)-2-(tert-Butoxy)-2-(5-(4-(4-fluorophenethoxy)phenyl)-2,6-dimethyl-4-(8-azaspiro[4.5]decan-8-yl)pyridin-3-yl)acetic acid] stands below 0.1 µM.
The same measure, in the same setting: under `Cc1nc(C)c([C@H](OC(C)(C)C)C(=O)O)c(N2CCC3(CCCC3)CC2)c1-c1ccc(C(=O)NCc2ccccc2)cc1` [Example 21, (S)-2-(5-(4-(Benzylcarbamoyl)phenyl)-2,6-dimethyl-4-(8-azaspiro[4.5]decan-8-yl)pyridin-3-yl)-2-(tert-butoxy)acetic acid] stands below 0.1 µM.
Take `Cc1nc(C)c([C@H](OC(C)(C)C)C(=O)O)c(N2CCC3(CCCC3)CC2)c1-c1ccc(OCC(C)(C)c2ccc(F)cc2)cc1` [Example 22, (S)-2-(tert-Butoxy)-2-(5-(4-(2-(4-fluorophenyl)-2-methylpropoxy)phenyl)-2,6-dimethyl-4-(8-azaspiro[4.5]decan-8-yl)pyridin-3-yl)acetic acid]: the EC50 (read-out: Activity) was below 0.1 µM and the EC50 (read-out: EC50 μM) was 0.026 µM.
`Cc1nc(C)c([C@H](OC(C)(C)C)C(=O)O)c(N2CCC3(CCCC3)CC2)c1-c1ccc(C(=O)NCc2ccccc2)c(F)c1` [Example 24, (S)-2-(5-(4-(Benzylcarbamoyl)-3-fluorophenyl)-2,6-dimethyl-4-(8-azaspiro[4.5]decan-8-yl)pyridin-3-yl)-2-(tert-butoxy)acetic acid]: the EC50 (read-out: Activity) was below 0.1 µM.
